Experimental data published in ChEMBL document CHEMBL1201862, “PubChem BioAssay data set” (2004).
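96-well plates; 48 h exposure; 5 concentrations. Endpoints by linear interpolation between flanking doses. Not reached: highest tested concentration assigned. GI50 = concentration required for 50% inhibition of growth.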 Activity calls are given as the source filed them. Rule as the data show it: active = GI50 up to about 1.1 µM and inactive = higher.

Key:
Assay in all cases: NCI anticancer screen, dose series, 48 h
SNB-75 = tested on: SNB-75
HOP-62 = tested on: HOP-62
HL-60 = tested on: HL-60
OVCAR-3 = tested on: OVCAR-3
KM-20L2 = tested on: KM-20L2
Malme-3M = tested on: Malme-3M
A549 = tested on: A549
OVCAR-4 = tested on: OVCAR-4
M14 = tested on: M14
OVCAR-8 = tested on: OVCAR-8
SNB-78 = tested on: SNB-78
K562 = tested on: K562
HCT-15 = tested on: HCT-15
UACC-62 = tested on: UACC-62
DMS-114 = tested on: DMS-114
OVCAR-5 = tested on: OVCAR-5
IGROV-1 = tested on: IGROV-1
NCI/ADR-RES = tested on: NCI/ADR-RES
Hs-578T = tested on: Hs-578T
MDA-MB-231 = tested on: MDA-MB-231

| SMILES | GI50 (SNB-75) | GI50 (HOP-62) | GI50 (HL-60) | GI50 (OVCAR-3) | GI50 (KM-20L2) | GI50 (Malme-3M) | GI50 (A549) | GI50 (OVCAR-4) | GI50 (M14) | GI50 (OVCAR-8) | GI50 (SNB-78) | GI50 (K562) | GI50 (HCT-15) [µM] | GI50 (UACC-62) | GI50 (DMS-114) | GI50 (OVCAR-5) | GI50 (IGROV-1) | GI50 (NCI/ADR-RES) | GI50 (Hs-578T) | GI50 (MDA-MB-231) |
| --- | --- | --- | --- | --- | --- | --- | --- | --- | --- | --- | --- | --- | --- | --- | --- | --- | --- | --- | --- | --- |
| Nc1nc(SCc2ccc([N+](=O)[O-])cc2)nc2c1ncn2C1OC(COP(=O)(O)O)C(O)C1O (configuration not stated) | > 100 µM (inactive) | > 100 µM (inactive) | > 100 µM (inactive) | > 100 µM (inactive) | > 100 µM (inactive) | > 100 µM (inactive) | > 100 µM (inactive) | > 100 µM (inactive) | > 100 µM (inactive) | > 100 µM (inactive) | > 100 µM (inactive) | > 100 µM (inactive) | > 100 | > 100 µM (inactive) | > 100 µM (inactive) | > 100 µM (inactive) | > 100 µM (inactive) |  |  |  |
| COc1ccc(/C=c2\sc3nnc(CCC(=O)Nc4cccc(C(F)(F)F)c4)n3c2=O)cc1 | > 75.7 µM (inactive) | > 100 µM (inactive) | > 47.9 µM (inactive) | 39.8 µM (inactive) | > 100 µM (inactive) | > 100 µM (inactive) | > 100 µM (inactive) | > 100 µM (inactive) | > 100 µM (inactive) | 83.4 µM (inactive) | > 100 µM (inactive) | > 100 µM (inactive) | > 100 | > 62.8 µM (inactive) | > 100 µM (inactive) | > 100 µM (inactive) | > 100 µM (inactive) |  |  |  |
| CCOC(=O)/C(O)=C1\C(=O)N(C)C(=O)C1c1cccc(OC)c1 (configuration not stated) | > 100 µM (inactive) | > 100 µM (inactive) | > 100 µM (inactive) | > 53.3 µM (inactive) | > 100 µM (inactive) | > 100 µM (inactive) | > 100 µM (inactive) | > 100 µM (inactive) |  | > 100 µM (inactive) | > 100 µM (inactive) | > 100 µM (inactive) | > 100 | > 100 µM (inactive) | > 100 µM (inactive) | > 100 µM (inactive) | > 100 µM (inactive) | > 100 µM (inactive) |  |  |
| COc1ccc(C2c3cc4c(cc3OC(O)(CO)C2C(=O)O)OCO4)cc1.COc1ccc(C2c3cc4c(cc3OC3(O)COC(=O)C23)OCO4)cc1 (configuration not stated) | 30.3 µM (inactive) | 33.7 µM (inactive) | 17.2 µM (inactive) | 22.4 µM (inactive) | 43.2 µM (inactive) | 26.9 µM (inactive) | 36.2 µM (inactive) | > 100 µM (inactive) | 15.3 µM (inactive) | 20.5 µM (inactive) | 23.2 µM (inactive) | 19.1 µM (inactive) | 17.7 | 17.7 µM (inactive) | 22.2 µM (inactive) | 39.4 µM (inactive) | 20.4 µM (inactive) |  |  |  |
| C[C@]12Cc3cn[nH]c3C(=O)C1CC[C@@H]1C2CC[C@@]2(C)C1CC[C@]2(C)O (some centres not stated) | 39.7 µM (inactive) | > 100 µM (inactive) | > 100 µM (inactive) | > 100 µM (inactive) | > 100 µM (inactive) | > 100 µM (inactive) | > 100 µM (inactive) | > 100 µM (inactive) | > 100 µM (inactive) | > 100 µM (inactive) | > 100 µM (inactive) | > 100 µM (inactive) | > 100 | > 100 µM (inactive) | > 100 µM (inactive) | > 100 µM (inactive) | > 100 µM (inactive) |  |  |  |
| CC(O)C(NC(=O)C(CS)NC(=O)C(CO)NC(=O)C(CCCCN)NC(=O)C(Cc1c[nH]c2ccccc12)NC(=O)C(Cc1ccc(O)cc1)NC(=O)C(CS)NC(=O)C(N)Cc1ccccc1)C(N)=O (configuration not stated) | 25 µM (inactive) | > 25 µM (inactive) | > 25 µM (inactive) | > 25 µM (inactive) | 23.9 µM (inactive) | > 25 µM (inactive) | > 25 µM (inactive) | 8.53 µM (inactive) | > 25 µM (inactive) | > 25 µM (inactive) | 31.3 µM (inactive) | > 25 µM (inactive) | > 25 | > 25 µM (inactive) | 35.8 µM (inactive) | > 25 µM (inactive) | > 25 µM (inactive) | > 25 µM (inactive) | > 25 µM (inactive) | > 25 µM (inactive) |
| CC[C@@H](C(=O)[C@@H](C)[C@@H](O)[C@H](C)CCc1ccc(C)c(O)c1C(=O)O)[C@H]1O[C@](CC)([C@H]2CC[C@](O)(CC)[C@H](C)O2)C[C@@H]1C [LASALOCID A SODIUM] | 0.92 µM (active) | 1.38 µM (inactive) | 0.348 µM (active) | 0.637 µM (active) | 1.78 µM (inactive) | 1.05 µM (active) | 2.06 µM (inactive) | 3.23 µM (inactive) | 3.31 µM (inactive) | 2.3 µM (inactive) | 3.13 µM (inactive) | 0.664 µM (active) | 3.19 | 1.81 µM (inactive) | 0.946 µM (active) | 6.47 µM (inactive) | 2.88 µM (inactive) |  |  |  |
